Data taken from patent publication US8778894B2, “Luteolin and diosmin/diosmetin as novel STAT3 inhibitors for treating autism” (University of South Florida, priority 2008, dated 2014).

Key:
[1] = tested on: STAT3 phosphorylation (Ser727); assay: STAT3 phosphorylation in brain homogenates of IL-6/MIA adult offspring, Western blot; type: in vivo, mice; settings: maternal co-treatment with S31-201 or diosmin vs IL-6 only; P<0.005
Procedure: (§1) Cultured cells were lysed in ice-cold lysis buffer (20 mM Tris, pH 7.5, 150 mM NaCl, 1 mM EDTA, 1 mM EGTA, 1% v/v Triton X-100, 2.5 mM sodium pyrophosphate, 1 mM β-glycerolphosphate, 1 mM Na3VO4, 1 μg/mL leupeptin, 1 mM PMSF) as described previously (Tan et al. 2002). Mouse brains were isolated under sterile conditions on ice and placed in ice-cold lysis buffer. Brains were then sonicated on ice for approximately 3 min, allowed to stand for 15 min at 4° C., then centrifuged at 15,000 rpm for 15 min at 4° C. Total protein content was estimated using the BCA protein assay (Pierce Biotechnology) and aliquots corresponding to 100 μg of total protein were electrophoretically separated using 10% Tris gels. Electrophoresed proteins were then transferred to nitrocellulose membranes (Bio-Rad, Richmond, Calif.), washed in Tris buffered saline with 0.1% Tween-20 (TBS/T), and blocked for 1 h at ambient temperature in TBS/T containing 5% (w/v) non-fat dry milk. After blocking, membranes were hybridized overnight at 4° C. with various primary antibodies. Membranes were then washed 3× for 5 min each in TBS/T and incubated for 1 h at ambient temperature with the appropriate HRP-conjugated secondary antibody (1:1000, Pierce Biotechnology). […] Densitometric analysis was conducted using a FluorS Multiimager with Quantity One™ software (Bio-Rad, Hercules, Calif.). […]

IL-6/MIA adult offspring [2] = settings: for open-field test, entries into the center: adult offspring of IL-6 treated dams co-treated with S31-201 4 μg i.p. or diosmin 10 mg/kg/day oral, P<0.01
Procedure: Pregnant C57BL/6 mice, embryonic day 2 (E2) were obtained from Jackson Laboratory (Bar Harbor, […].) and individually housed and maintained in an animal facility of the University of South Florida (USF). All subsequent experiments were performed in compliance with protocols approved by the USF Institutional Animal Care and Use Committee. […] Intraperitoneal PBS injection (200 μL) was used as the control for IL-6 administration. Open field (OF)—The OF behavioral analysis is a test of both locomotor activity and emotionality in rodents (Radyushkin et al. 2009). Mice were placed in a 50×50 cm white Plexiglas box brightly lit by fluorescent room lighting and six 60 W incandescent bulbs approximately 1.5 m above the box. Activity was recorded by a ceiling-mounted video camera and analyzed from digital video files either by the automated tracking capabilities of Ethovision or counted using the behavior tracker (version 1.5, www.behaviortracker.com), a software-based event-recorder. The total distance moved and numbers of entries into the center of the arena (central 17 cm square) were determined in a 10 minute session. […] We also treated control mice (non-IL-6 treated) with the STAT3 inhibitor, S31. […] (10 mg/kg/day)]. […] Heightened anxiety and social interaction deficits are hallmarks of schizophrenia and autism. Reluctance to enter the center portion of a well-lit open field is usually taken as a measure of heightened anxiety under mildly stressful conditions (Smith et al., 2007).

TNF-α [3] = assay: TNF-α ELISA in brain homogenates of IL-6/MIA adult offspring; type: in vivo, mice; settings: maternal co-treatment with S31-201 or diosmin vs IL-6 only; P<0.05
Procedure: (§2) Mouse brain homogenates were prepared as described above and used at a dilution of 1:10 in PBS for these assays. Brain tissue-solubilized cytokines were quantified using commercially available ELISAs that allow for detection of IL-1β, and TNF-α. Cytokine detection was carried out according to the manufacturer's instruction. Total protein content was determined as described above and data represented as pg of cytokine/mg total cellular protein for each cytokine.
(§3) At sacrifice, brain homogenates were prepared from offspring of mice treated with IL-6, IL-6/S31-201, IL-6/Diosmin or PBS (control) (n=8, 4 female/4 male). Pro-inflammatory cytokine analysis by ELISA was conducted on these mouse brain homogenates. Data are represented as mean±SD of each cytokine in brain homogenates (pg/mg total protein) from these mice.

IL-6/MIA adult offspring [4] = assay: Social interaction test in IL-6/MIA adult offspring; type: in vivo, mice; settings: for social interaction test, sniffing time: maternal S31-201 or diosmin vs IL-6/MIA, P<0.05; for social interaction test, social impairment (preference for the social chamber): maternal co-treatment with S31-201 4 μg i.p. or diosmin 10 mg/kg/day oral, P<0.005
Procedure: Pregnant C57BL/6 mice, embryonic day 2 (E2) were obtained from Jackson Laboratory (Bar Harbor, […].) and individually housed and maintained in an animal facility of the University of South Florida (USF). All subsequent experiments were performed in compliance with protocols approved by the USF Institutional Animal Care and Use Committee. […] Intraperitoneal PBS injection (200 μL) was used as the control for IL-6 administration. Social interaction (SI)—The testing apparatus consisted of a 60×40 cm Plexiglas box divided into three chambers. Mice were able to move between chambers through a small opening (6×6 cm) in the dividers. Plastic cylinders in each of the two side chambers contained the probe mice, and numerous 1 cm holes in the cylinders enabled test and probe mice to contact each other. Test mice were placed in the center chamber, with an overhead camera recording their movements. Mice were allowed 5 min of exploration time in the box, after which an unfamiliar, same-sex probe mouse from the same experimental group was placed in one of two restraining cylinders (Radyushkin et al. 2009). The Ethovision software (Noldus, Leesburg, Va.) program measured time spent in each of the three chambers, and social preference was defined as follows: (% time spent in the social chamber)−(% time spent in the opposite chamber). […] We also treated control mice (non-IL-6 treated) with the STAT3 inhibitor, S31. […] (10 mg/kg/day)]. […] Heightened anxiety and social interaction deficits are hallmarks of schizophrenia and autism. Reluctance to enter the center portion of a well-lit open field is usually taken as a measure of heightened anxiety under mildly stressful conditions (Smith et al., 2007).

IL-1β [5] = assay: IL-1β ELISA in brain homogenates of IL-6/MIA newborn mice; type: in vivo; settings: dams IL-6 5 μg i.p.; S31-201 4 μg i.p. or diosmin 10 mg/kg/day oral; P<0.01
Procedure: as §2
(§4) Pro-inflammatory cytokine analysis by ELISA was conducted on these newborn mouse brain homogenates. Data are represented as mean±SD of each cytokine in brain homogenates (pg/mg total protein) from these newborn mice.

TNF-α [6] = assay: TNF-α ELISA in brain homogenates of IL-6/MIA newborn mice; type: in vivo; settings: dams IL-6 5 μg i.p.; S31-201 4 μg i.p. or diosmin 10 mg/kg/day oral; P<0.01
Procedure: as §2, §4

IL-1β [7] = assay: IL-1β ELISA in brain homogenates of IL-6/MIA adult offspring; type: in vivo, mice; settings: maternal co-treatment with S31-201 or diosmin vs IL-6 only; P<0.05
Procedure: as §2, §3

[8] = tested on: IL-6 induced STAT3 phosphorylation; assay: STAT3 phosphorylation in brain homogenates of IL-6/MIA newborn mice, Western blot; type: in vivo; settings: dams IL-6 5 μg i.p. at E12.5; S31-201 4 μg i.p. or diosmin 10 mg/kg/day oral; vs IL-6 only, P<0.005
Procedure: as §1

[9] = tested on: IL-6 induced JAK2 phosphorylation; assay: JAK2 phosphorylation in brain homogenates of IL-6/MIA newborn mice, Western blot; type: in vivo; settings: dams IL-6 5 μg i.p. at E12.5; S31-201 4 μg i.p. or diosmin 10 mg/kg/day oral; vs IL-6 only, P<0.005
Procedure: as §1

[10] = after intestinal transformation of diosmin to diosmetin and absorption; cited from earlier work
[11] = tested on: STAT3 activation/phosphorylation induced by IL-6; assay: STAT3 activation induced by IL-6 in cultured neuronal cells (PC12 and N2a), Western blot; type: cell-based; settings: dose-dependent
[12] = 500-2,000 mg per day orally for up to one year; cited from earlier work
[13] = tested on: IL-6 induced JAK2 phosphorylation; assay: IL-6 induced JAK2 phosphorylation in N2a and primary neuronal cells, Western blot; type: cell-based, murine; settings: IL-6 50 ng/mL, 30 min
Procedure: (§5) Cerebral cortices were isolated from C57BL/6 mouse embryos, between 15 and 17 days in utero. After 15 min of incubation in trypsin (0.25%) at 37° C., individual cortices were mechanically dissociated. Cells were collected after centrifugation at 1200 rpm, resuspended in DMEM supplemented with 10% fetal calf serum, 10% horse serum, uridine ([…]; Sigma) and fluorodeoxyuridine ([…]; Sigma), and plated in 24 well collagen coated culture plates at a density of 2.5×10^5 cells per well.
(§6) N2a (murine neuroblastoma) cells, purchased from the American Type Culture Collection (ATCC, Manassas, Va.) were grown in complete EMEM supplemented with 10% fetal calf serum. Cells were plated in 24 well collagen coating culture plates at a density of 1×10^5 cells per well. After overnight incubation, N2a cells were incubated in neurobasal media supplemented with 3 mM dibutyryl cAMP in preparation for treatment. […]
(§7) Cultured cells were lysed in ice-cold lysis buffer (20 mM Tris, pH 7.5, 150 mM NaCl, 1 mM EDTA, 1 mM EGTA, 1% v/v Triton X-100, 2.5 mM sodium pyrophosphate, 1 mM β-glycerolphosphate, 1 mM Na3VO4, 1 μg/mL leupeptin, 1 mM PMSF) as described previously (Tan et al. 2002). […] Densitometric analysis was conducted using a FluorS Multiimager with Quantity One™ software (Bio-Rad, Hercules, Calif.). […]

[14] = tested on: IL-6 induced STAT3 phosphorylation (Ser727); assay: IL-6 induced STAT3 phosphorylation in N2a and primary neuronal cells, Western blot; type: cell-based, murine; settings: IL-6 50 ng/mL, 30 min
Procedure: as §5, §6, §7

[15] = dose dependent, N2a and primary neurons

open-field behaviour, inhibitor-treated control (non-IL-6 injected) mice vs PBS-treated mice (IL-6/MIA adult offspring [2]; mouse, in vivo) | SMILES | STAT3 phosphorylation in adult offspring brain homogenates [1] | open-field test, entries into the center (IL-6/MIA adult offspring [2]) | TNF-α cytokine level in adult offspring brain homogenates (TNF-α [3]) | social interaction test, sniffing time (IL-6/MIA adult offspring [4]) | social interaction test, social impairment (preference for the social chamber) (IL-6/MIA adult offspring [4]) | reduction of the IL-6 induced increase in IL-1β level, newborn brain homogenates (IL-1β [5]) [%] | reduction of the IL-6 induced increase in TNF-α level, newborn brain homogenates (TNF-α [6]) [%] | IL-1β cytokine level in adult offspring brain homogenates (IL-1β [7]) | IL-6 induced STAT3 phosphorylation in newborn brain homogenates [8] | IL-6 induced JAK2 phosphorylation in newborn brain homogenates [9] | plasma half-life [10] [h] | inhibition of activation/phosphorylation of STAT3 induced by IL-6 [11] | safety and tolerability in clinical trials [12] | concentration at which significant reductions of JAK2 phosphorylation begin [13, 15] [µM] | effect on apoprotein level of JAK2 ([13]; luteolin 0-20 μM) | concentration at which significant reductions of STAT3 (Ser727) phosphorylation begin [14, 15] [µM] | effect on apoprotein level of STAT3 ([14]; luteolin 0-20 μM)
did not find a significance | Cc1ccc(S(=O)(=O)OCC(=O)Nc2ccc(C(=O)O)c(O)c2)cc1 [S31-201] | significant reduction | entering the center more often than IL-6 treated animals | significantly reduces | increase in sniffing compared to IL-6/MIA mice | significantly attenuated | ~50 | ~50 | significantly reduces | significantly reduce | significantly reduce | – | – | – | – | – | – | –
– | COc1ccc(-c2cc(=O)c3c(O)cc(O)cc3o2)cc1O [diosmetin] | – | – | – | – | – | – | – | – | – | – | 26 to 43 | – | – | – | – | – | –
– | COc1ccc(-c2cc(=O)c3c(O)cc(O[C@@H]4O[C@H](CO[C@@H]5O[C@@H](C)[C@H](O)[C@@H](O)[C@H]5O)[C@@H](O)[C@H](O)[C@H]4O)cc3o2)cc1O [diosmin] | significant reduction | entering the center more often than IL-6 treated animals | significantly reduces | increase in sniffing compared to IL-6/MIA mice | significantly attenuated | ~50 | ~50 | significantly reduces | significantly reduce | significantly reduce | – | inhibit activation/phosphorylation of STAT3 | excellent safety profile and were well tolerated | – | – | – | –
– | O=c1cc(-c2ccc(O)c(O)c2)oc2cc(O)cc(O)c12 [luteolin, 3′,4′,5,7-tetrahydroxyflavone] | – | – | – | – | – | – | – | – | – | – | – | inhibit activation/phosphorylation of STAT3 | – | 10 | did not affect | 10 | did not affect
